Data from the supplement of paper PMC7801607.

tested on: Plasmodium falciparum Dd2 asexual blood stage

Row | Structure (SMILES) | IC50
1 | Clc1ccc(COC(Cn2ccnc2)c2ccc(Cl)cc2Cl)c(Cl)c1 (stereo not drawn) | > 5 µM
2 | O=C(O)C(Cc1c[nH]c2ccccc12)N1C(=O)c2ccccc2C1=O (stereo not drawn) | > 5 µM
3 | O=S(=O)(NCB(O)O)c1ccc(-c2nnn[nH]2)cc1C(F)(F)F | > 5 µM
4 | CC(=O)Nc1cc(NS(=O)(=O)c2ccc(Cl)cc2)cc2c(Cl)n[nH]c12 | > 5 µM
5 | NC(=O)[C@@H]1CC[C@@H]2CN1C(=O)N2OS(=O)(=O)O | > 5 µM
6 | O[C@@](Cn1cnnn1)(c1ccc(F)cc1F)C(F)(F)c1ccc(-c2ccc(OCC(F)(F)F)cc2)cn1 | > 5 µM
7 | NC(=O)c1cnccn1 | > 5 µM
8 | Cc1c(CN(C)C(=O)/C=C/c2cnc3c(c2)C(C)(C)C(=O)N3)oc2ccccc12 | > 5 µM
9 | O=S(=O)(Nc1ccc(-n2cccc2)cc1)c1ccc(Cl)c(Cl)c1 | > 5 µM
10 | Cc1onc(-c2ccccc2Cl)c1C(=O)N[C@@H]1C(=O)N2[C@@H]1SC(C)(C)[C@@H]2C(=O)O | > 5 µM
11 | COc1ccc(NS(=O)(=O)c2ccc(Cl)s2)cn1 | > 5 µM
12 | CCOC(=O)/C=C/[C@H](C[C@@H]1CCNC1=O)NC(=O)[C@@H](CC(=O)[C@@H](NC(=O)c1cc(C)on1)C(C)C)Cc1ccc(F)cc1 | > 5 µM
13 | OCCC#Cc1nc(-c2ccc(F)cc2)c(-c2ccncc2)n1CCCc1ccccc1 | > 5 µM
14 | N=C(N)c1ccc(COc2ccc(Cl)cc2)cc1 | > 5 µM
15 | OC(Cn1cncn1)(Cn1cncn1)c1ccc(F)cc1F | > 5 µM
16 | Nc1nc(O)c(Br)c(-c2ccccc2)n1 | > 5 µM

Row | Structure (SMILES) | IC50
17 | c1cnc(NCc2ccc(CNc3ncccn3)cc2)nc1 | > 5 µM
18 | NC(=O)c1[nH]c2ccc(S(N)(=O)=O)cc2c1-c1ccccc1 | > 5 µM
19 | COc1c(F)c(F)cc2c(=O)c(C(=O)O)cn(C3CC3)c12 | > 5 µM
20 | Clc1cccc(-c2nnc(-c3ccccc3)o2)c1 | > 5 µM
21 | CC(C)n1cnc2c(NCc3ccccc3)nc(NCc3ccccc3)nc21 | > 5 µM
22 | NC(=O)c1cnc2ccc(S(=O)(=O)c3ccccc3)cc2c1Nc1ccc(O)cc1 | > 5 µM
23 | CC1(C)C[C@H]1C(=O)N/C(=C\CCCCSC[C@@H](N)C(=O)O)C(=O)O | > 5 µM
24 | O=C(O)CCNC(=O)c1ccccc1 | > 5 µM
25 | Nc1nc(C(F)(F)F)cc2c1[nH]c(=O)n2Cc1ccccc1 | > 5 µM
26 | O=C1NC(=S)N/C1=C\c1cc(Br)cc(Br)c1O | > 5 µM
27 | C[N+]1(C)CCCC(OC(=O)C(O)(c2ccccc2)c2ccccc2)C1 (stereo not drawn) | > 5 µM
28 | CCCCCOc1ccc(/C=C2\Oc3c(ccc(O)c3O)C2=O)c(O)c1 | > 5 µM
29 | CCc1ccc(C2CC(C(F)(F)F)n3ncc(C(=O)NCc4ccc(OC)cc4)c3N2)cc1 (stereo not drawn) | > 5 µM
30 | Cc1cc(NS(=O)(=O)c2ccc(-c3ccc(F)cc3F)cc2)no1 | > 5 µM
31 | COC(=O)Nc1nc2ccccc2[nH]1 | > 5 µM

Other lines, results leading:

Row | IC50 | Structure (SMILES)
32 | > 5 µM | Cc1onc(-c2ccccc2)c1-c1ccc(S(N)(=O)=O)cc1
33 | > 5 µM | Cc1ccc(Oc2ccccc2-c2csc(NC3=NCCCN3)n2)c(C)c1
34 | > 5 µM | c1ccc(-c2nnc3c4ccccc4c(N4CCNCC4)nn23)cc1
35 | > 5 µM | O=C(CCCC(F)(F)F)N1CCC(c2nc(-c3nccs3)no2)CC1
36 | > 5 µM | CC(C)(C)c1ccc(C(=O)NC(=O)N2CCCc3ccccc32)cc1
37 | > 5 µM | Cc1cc(O)c2c(c1)C(=O)c1c(I)c(O)c(I)c(O)c1C2=O
38 | > 5 µM | O=C(CCc1ccc2c(c1)OCO2)NCc1ccc(-c2ccccc2F)cc1
39 | > 5 µM | COc1cc2c(O)c3c(c(-c4ccc5c(c4)OCO5)c2cc1OC)C(=O)OC3
40 | > 5 µM | COC(=O)Nc1nc2c(C)cccc2[nH]1
41 | > 5 µM | O=C(NCCN1CCCCC1)c1cccc(C(F)(F)F)c1
42 | > 5 µM | Cc1nc(-c2ccc(C3N(C)c4ccc(F)cc4C(=O)N3c3ccccc3)s2)cs1 (stereo not drawn)
43 | > 5 µM | O=[N+]([O-])c1cn2c(n1)OC[C@@H](OCc1ccc(OC(F)(F)F)cc1)C2
44 | > 5 µM | CCc1nc2ccccn2c1C(=O)NCc1ccccc1
45 | > 5 µM | COc1ccc2c(c1)cc(CNC(=O)c1cc3ccccc3o1)n2CC(=O)O
46 | > 5 µM | COC(=O)Nc1nc2cc(S(=O)c3ccccc3)ccc2[nH]1 (stereo not drawn)
47 | > 5 µM | CC(Cc1ccccc1)C(=O)Nc1ccc(Cl)cc1C(=O)O (stereo not drawn)
48 | > 5 µM | CCC(CC)[C@H](NC(C)=O)[C@@H]1[C@H](O)[C@@H](C(=O)O)C[C@H]1NC(=N)N
49 | 4.8 µM | Cc1cc(C2CCCCC2)n(O)c(=O)c1
50 | > 5 µM | CC1=C(/C=C/C(C)=C/C=C/C(C)=C/C(=O)Nc2ccc(O)cc2)C(C)(C)CCC1
51 | > 5 µM | O=C1NC(=O)C(Br)=C1Br
52 | > 5 µM | Cc1nc(Nc2ccc(F)cc2)nc(N2CCc3ccccc3C2C)c1C (stereo not drawn)
53 | > 5 µM | CCOC(=O)N[C@@H]1CC[C@@H]2[C@@H](C1)C[C@H]1C(=O)O[C@H](C)[C@H]1[C@H]2/C=C/c1ccc(-c2cccc(F)c2)cn1
